Experiments:
[1] = tested on: H460 cells; assay: MTT assay H460; assay type: cell-based, human
Method: (§1) Details are given in Supplementary Materials and Methods. Using probability unit and weighted regression method to calculate the IC50 value of compounds.
Total cells in the logarithmic growth phase were collected, digested using 0.25% pancreatic enzymes, and then diluted into single-cell suspensions using phosphate-buffered solution (PBS). These cells were seeded into 96-well plates at 4× 10^3-5× 10^3 cells per well (100 µL per well) and then A549, H460, OVCAR-3, SGC7901, MDA-MB-231, HCT116 and HepG2 were cultured at 37°Cin an incubator containing 5% CO2. After cell complete attachment, 100 µL of different concentrations of compounds (0.625 μM, 1.25 μM, 2.5μM, 5 μM, 10 μM) were added to the cells after the nutrient solution in each well was discarded, while no compound except 0.1% DMSO was added to cells in the control group; at the same time, each concentration was set up to 5 wells. In addition, 5 wells in each 96-well plate only received 100 µL of nutrient solution as a blank control. The plates were taken out after the cells were incubated with compounds for 24 h, and 20 µL of MTT solution (5 mg/mL) (Wuhan Boster Biotechnology Limited Company, Wuhan, China; item No. AR1156) was added into all the wells. […] When the crystals were fully dissolved, the blank wells were used to zero the plate reader. The optical density (OD) of each well was detected at 490 nm. […]

[2] = tested on: H460 cells; assay: Annexin V/PI staining flow cytometry, H460; assay type: cell-based, human; settings: 24 h
Method: The density of the A549 cells and H460 in the logarithmic growth phase was adjusted to 1 × 10^6 cells/mL, and a total of 1 mL of cell suspension and 1 mL of L14e at different concentrations were added into each well with the final compound L14e concentration in each group as 0, 0.5, 1.0, and 1.5 μM. Details are given in Supplementary Materials and Methods.
The density of the A549 cells and H460 in the logarithmic growth phase was adjusted to 1 × 10^6 cells/mL, and then the cell suspension was seeded into a 6-well plate (Becton Dickinson and Company, USA). A total of 1 mL of cell suspension and 1 mL of compound L14e at different concentrations were added into each well with the final compound L14e concentration in each group as 0 μM, 0.5 μM, 1.0 μM, and 1.5μM. After cells were incubated for 24 h at 37 °C, 1 mL of cell suspension per well was collected and centrifuged at 1000 r/min for 10 min at 4°C, and the supernatant was removed. Then, 1 mL of cold PBS was added to the cell pellet, and was shaken lightly to re-suspend the cells. The cells were centrifuged at 1000 r/min at 4 °C for 10 min, and the supernatant was removed. These steps were repeated twice. The cells were re-suspended in 150µL of PBS, 10 µL of fluorescein isothiocyanate (FITC)-labeled Annexin V (Annexin V-FITC) (Promega Corporation, USA) and 5 µL of PI (Promega Corporation, USA) were added. The mixture was gently mixed and incubated in the dark at room temperature for 10 min then stained cells were analyzed using flow cytometry to test the levels of apoptotic cells (Becton Dickinson and Company, USA; FACS Calibur).

[3] = tested on: VEGF; assay: VEGF secretion ELISA in A549 supernatant; assay type: cell-based, human; settings: ELISA of cell supernatant
Method: Since the inhibitory effect of the compound on A549 cells was stronger than that of H460, the A549 cells were treated with different concentrations of L14e. Taking the supernatant of the cells to detect the change of VEGF content by ELISA assays, and the effect of the supernatant on the formation of endothelial cells was detected.

[4] = tested on: HCT-116 cells; assay: MTT assay HCT-116; assay type: cell-based; settings: Homo sapiens, 24h of treatment, mean ± SD
Method: as §1
Total cells in the logarithmic growth phase were collected, digested using 0.25% pancreatic enzymes, and then diluted into single-cell suspensions using phosphate-buffered solution (PBS). These cells were seeded into 96-well plates at 4× 10^3-5× 10^3 cells per well (100 µL per well) and then A549, H460, OVCAR-3, SGC7901, MDA-MB-231, HCT116 and HepG2 were cultured at 37°Cin an incubator containing 5% CO2. After cell complete attachment, 100 µL of different concentrations of compounds (0.625 μM, 1.25 μM, 2.5μM, 5 μM, 10 μM) were added to the cells after the nutrient solution in each well was discarded, while no compound except 0.1% DMSO was added to cells in the control group; at the same time, each concentration was set up to 5 wells. In addition, 5 wells in each 96-well plate only received 100 µL of nutrient solution as a blank control. The plates were taken out after the cells were incubated with compounds for 24 h, and 20 µL of MTT solution (5 mg/mL) (Wuhan Boster Biotechnology Limited Company, Wuhan, China; item No. AR1156) was added into all the wells. After another time of incubation for 4 h at 37 °C, the nutrient solution in each well was discarded slowly, and 150 µL of DMSO was added to each well. The plates were shaken on a shaking table for 20 min. When the crystals were fully dissolved, the blank wells were used to zero the plate reader. The optical density (OD) of each well was detected at 490 nm. The IC50 value was determined as the concentration of the inhibitor that caused 50% inhibition. Using probability unit and weighted regression method to calculate the IC50 value of compounds.

[5] = HPLC analysis of stability in cell culture medium; assay type: physicochemical
Method: The HPLC system consisted of e2695 Separations Module pump coupled to a 2489 UV/Visible detector (Waters Corp., Milford, MA, USA). Chromatograms was achieved on a Waters BDS C18 column (200 mm × 4.6 mm, 5 um). Detection was performed at a wavelength of 260 nm at 37 °C. The mobile phase consisted of 0.1% phosphoric acid water /methanol (50/50, v/v) at a flow rate of 1.0 mL/min. A10 µL of sample was injected. The results are loaded in the supplemental file.

In the case of `O=C(Nc1cccc(Cl)c1)Nc1ccccc1NS(=O)(=O)c1c[nH]c(=O)[nH]c1=O` [Compound L14e, N'-(3-chlorophenyl)-2-(2,4-dihydroxypyrimidine-5-sulfonamido)phenyl urea], the “anti-proliferative potency relative to PTX, H460” value [1] is reported as “nearly five times higher”, the “inhibition of proliferation of H460 cells compared with PTX and compound 10l” value ([1]; Fig. 2B(b)) is reported as “significantly more inhibitory” and the apoptotic rate ([2]; H460, 0.5 μM) is reported as 6.4%. For the same compound, the “early apoptosis rate (Q4, Annexin V [+] PI [−])” value (from here on “early apoptosis rate”) ([2]; H460, 0.5 μM) was 3.9%, the apoptotic rate ([2]; H460, 1.0 μM) was 21.8% and the “early apoptosis rate” value ([2]; H460, 1.0 μM) was 15.1%. The apoptotic rate ([2]; H460, 1.5 μM) was 24.4%, the “early apoptosis rate” value ([2]; H460, 1.5 μM) was 17.3% and the “secretion of VEGF in A549 cells” value [3] was “significantly reduce the secretion of VEGF”. The IC50 [4] was 1980 ± 180 nM, the “HPLC-UV Measure Concentration” value ([5]; nominal 0.625 µM, 1h) was 0.621 ± 0.005 µM and the “HPLC-UV Measure Concentration” value ([5]; nominal 0.625 µM, 12h) was 0.623 ± 0.001 µM. The “HPLC-UV Measure Concentration” value ([5]; nominal 0.625 µM, 24h) was 0.625 ± 0.002 µM, the “HPLC-UV Measure Concentration” value ([5]; nominal 0.625 µM, 36h) was 0.625 ± 0.001 µM and the “HPLC-UV Measure Concentration” value ([5]; nominal 1.25 µM, 1h) was 1.246 ± 0.005 µM. The “HPLC-UV Measure Concentration” value ([5]; nominal 1.25 µM, 12h) was 1.239 ± 0.003 µM, the “HPLC-UV Measure Concentration” value ([5]; nominal 1.25 µM, 24h) was 1.253 ± 0.007 µM and the “HPLC-UV Measure Concentration” value ([5]; nominal 1.25 µM, 36h) was 1.242 ± 0.009 µM. For the same compound, the “HPLC-UV Measure Concentration” value ([5]; nominal 2.5 µM, 1h) was 2.510 ± 0.020 µM, the “HPLC-UV Measure Concentration” value ([5]; nominal 2.5 µM, 12h) was 2.506 ± 0.021 µM and the “HPLC-UV Measure Concentration” value ([5]; nominal 2.5 µM, 24h) was 2.430 ± 0.002 µM. The “HPLC-UV Measure Concentration” value ([5]; nominal 2.5 µM, 36h) was 2.483 ± 0.050 µM, the “HPLC-UV Measure Concentration” value ([5]; nominal 5 µM, 1h) was 5.001 ± 0.010 µM and the “HPLC-UV Measure Concentration” value ([5]; nominal 5 µM, 12h) was 4.963 ± 0.005 µM. The “HPLC-UV Measure Concentration” value ([5]; nominal 5 µM, 24h) was 5.012 ± 0.023 µM, the “HPLC-UV Measure Concentration” value ([5]; nominal 5 µM, 36h) was 4.980 ± 0.020 µM and the “HPLC-UV Measure Concentration” value ([5]; nominal 10 µM, 1h) was 10.000 ± 0.049 µM. The “HPLC-UV Measure Concentration” value ([5]; nominal 10 µM, 12h) was 9.908 ± 0.100 µM, the “HPLC-UV Measure Concentration” value ([5]; nominal 10 µM, 24h) was 9.930 ± 0.100 µM and the “HPLC-UV Measure Concentration” value ([5]; nominal 10 µM, 36h) was 9.850 ± 0.150 µM.
